Where two headings read alike, the source gives them in different places.

Data set [1] concerns G. rostochiensis pathotype Ro-1. Briefly: Interaction of glycoalkaloid dilution series with PRL in hatching assay. It is filed as in vivo. The following applies: Fig. 9. The text has this:
To investigate these interactions further, the response of PCN hatch to a dilution series of single natural potato-produced HFs (the glycoalkaloids α-solanine and α-chaconine: Devine, K.J. et al. ((1996) supra) was studied in the presence and absence of a PRL preparation, the concentration of the latter being adjusted to that used in Figs. 4 and 5.
Logarithmic dilution series ([…]) of the glycoalkaloids α-chaconine and α-solanine (Sigma Chemical Co. Poole, UK) were each prepared either in water or PRL (1mg ml^-1). Hatching activity was determined in these dilution series, with PRL (1mg ml^-1) and water as controls.
At each glycoalkaloid concentration, the hatching activity of (glycoalkaloid only), (PRL only) and (glycolalkaloid + PRL) preparations was determined. The difference between the observed hatch (in the presence of (glycoalkaloid only), (PRL only) and (glycoalkaloid + PRL) and the expected hatch if the effects of the glycoalkaloid and PRL were additive, (i.e. (glycoalkaloid only)) + (PRL only) was determined at each concentration of glycoalkaloid. The results are depicted in Fig. 9.

For data set [2] the following is noted: cited from earlier work.
A further data set concerns PCN. To be noted: in aqueous solutions or as a solid; cited from earlier work.

Consider `C[C@H]1CC[C@@H]2[C@@H](C)[C@H]3[C@H](C[C@H]4[C@@H]5CC=C6C[C@@H](O[C@@H]7O[C@H](CO)[C@H](O)[C@H](O[C@@H]8O[C@H](CO)[C@@H](O)[C@H](O)[C@H]8O)[C@H]7O[C@@H]7O[C@@H](C)[C@H](O)[C@@H](O)[C@H]7O)CC[C@]6(C)[C@H]5CC[C@]34C)N2C1` [α-solanine], for which the “effect on hatching activity of PRL” value in data set [1] (high concentrations of glycoalkaloid, dilution series in PRL (1mg ml^-1)) is recorded as “markedly inhibited”; in data set [1] (lower concentrations of glycoalkaloid, over a range of four orders of magnitude), “interacted synergistically”.
On to “trans-2-(2-,13-dihydroxy-9-methoxy-7,7,16-trimethyl-5,10,20-trioxo-19-oxahexacyclo [9.7.0.1^3,6.0^3,8.1^12,16]-eicosa-1(11),8-dien-15-yl) cyclopropropanecarboxylic acid [hatching agent]”, for which the stability result in data set [2] (pH below 2 and above 7) is recorded as “unstable”; in data set [2] (temperatures above about 35°C) it was “unstable”. Moreover, the “concentration at which active” value in the data set on PCN is reported as 0.01 - 1000 mg/kg soil. Besides, in the data set on PCN, the optimum concentration was 1 - 100 mg/kg soil.

Values taken from patent EP1085812B1, “POTATO CYST NEMATODE CONTROLLING FACTORS AND THEIR USE IN AGRICULTURE” (priority 1998, dated 1999).
